Measurements reported in patent US8597904B2, “Pharmaceutical compositions for the treatment of conditions responsive to proteasome inhibition” (priority 2007, dated 2013).
Residues, ends and D or L forms follow the SMILES beside them. *: point of attachment. Cbz = O=C(OCc1ccccc1)*

Tests used:
[1] = tested on: SK-N-SH cells; assay: Cytox-Glo cytotoxicity assay; type: cell-based, human; conditions: light microscope, 48 hours
Method: Determination of potential cytotoxic effects by GlbA and/or […] was carried out by using the Cytox-Glo cytotoxicity assay, which measures “dead cell proteases” from cells that have lost membrane integrity. Briefly, cells were treated with a single concentration of compound for 48 hours in a final volume of 100 μl, after which 50 μl of AAF-Glo luminogenic peptide substrate (alanyl-alanyl-phenylalanyl-aminoluciferin) was added to each well and incubated for 15 min at room temperature. The luminescence was measured by a Dynex MLX luminometer to give a reading of cells with damaged membranes. Next, 50 μl of digitonin was added to each well and the samples incubated for 15 minutes at room temperature. Luminescence was measured a second time to determine total cell number. Controls included cells with vehicle only, media, and media with compound.
SK-N-SH cells were treated with 0.25 μM GlbA or 25 μM SylA and SKOV3 cells were treated with 1.0 μM GlbA or 25 μM SylA. As illustrated in FIGS. 16A and 16B, control cells (treated with DMSO and H2O representing GlbA and SylA controls, respectively) were viable and no cytotoxicity was detected.
To determine if autophagy plays a role in GlbA/SylA-induced cell death, levels of cytotoxicity in cells pre-treated with 3-methyladenine (3-MA), an established autophagy inhibitor, were measured using the assay described in Example 12.

[2] = tested on: microtubule-associated protein 1 light chain 3 (LC3); assay: immunoblot of LC3 conversion (autophagy) in SK-N-SH cells; type: cell-based, human; conditions: compared to untreated control cells
Method: To verify whether autophagy is induced in GlbA-treated cells, levels of microtubule-associated protein 1 light chain 3 (LC3), a reliable marker of autophagosomes, were measured. […] Therefore, this characteristic conversion of LC3 can be used to monitor autophagic activity. SK-N-SH cells were treated with GlbA in the presence or absence of 3-MA, and cell lysates were probed with LC3.

[3] = tested on: poly (ADP-ribose) polymerase (PARP); assay: Western blot of PARP cleavage in SK-N-SH cells; type: cell-based, human; conditions: Example 15, single agent
Method: The induction of an apoptotic response in cancer cells by the addition of syringolin A was verified by monitoring the cleavage of poly (ADP-ribose) polymerase (PARP), a common response during apoptosis. SK-N-SH cells were cultured in the presence or absence of 20 μM syringolin A for 0, 24 and 48 hours, and cell lysates were then generated as described in Example 4 and probed for the presence of PARP by Western blotting using rabbit polyclonal anti-PARP (#9542) (diluted 1:1000) and the HRP-linked anti-rabbit secondary antibody described in Example 4. The results were representative of four independent experiments. […] The treatment of cells for 48 hours further increased the levels of cleaved PARP, whereas noncleaved PARP disappeared. In a similar manner, syringolin A induced PARP cleavage in SKOV3 cells, but noncleaved PARP was still detected 48 hours after treatment (FIG. 5B).
The role of glidobactin A (GlbA) in apoptosis and its correlation with autophagy has not previously been examined. Therefore, in a series of experiments, cell lysates of SK-N-SH cells were treated with GlbA in the presence and absence of the autophagy inhibitor 3-methyladenine (3-MA) and probed for poly ADP-ribose polymerase (PARP). The cleavage of PARP produces a smaller 89 kDa fragment which is indicative of late apoptosis.

[4] = biological target: T1, proteasome activity in SK-N-SH neuroblastoma cells (Homo sapiens, UniProt P28074); assay: Proteasome-Glo cell-based luminescent assay; conditions: 2 hours incubation
T1 construct: endogenous in cells; host or cells: SK-N-SH
T1 sequence (P28074 60-263): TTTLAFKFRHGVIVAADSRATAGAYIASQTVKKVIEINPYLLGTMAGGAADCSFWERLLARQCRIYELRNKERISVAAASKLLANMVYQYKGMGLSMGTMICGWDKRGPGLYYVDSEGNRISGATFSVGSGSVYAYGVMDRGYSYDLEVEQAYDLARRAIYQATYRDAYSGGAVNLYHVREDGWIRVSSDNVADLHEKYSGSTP
Method: Syringolin A was tested as a proteasome inhibitor in vivo in cultured mammalian cancer cells. Inhibition of proteasome activity in human SK-N-SH neuroblastoma cells was measured using the Proteasome-Glo™ cell-based luminescent assay (Promega) in solid white 96-well microtiter cell culture plates. Ten μl of syringolin A (at various concentrations) was added to each well containing SK-N-SH cells (plated at a concentration of 1.0×10^5 cells/ml in 90 μl well volumes 24 hours prior) and a negative control and media only control were included. Cells were incubated with 1-100 μM syringolin A for 2 hours or 24 hours, and then equilibrated to room temperature for 15 minutes before 100 μl of Proteasome-Glo reagent (containing bioluminescent substrate Suc-LLVY-aminoluciferin) was added to the cells. Luminescence (indicated as relative luminescence units [RLU]) was read after 15-30 minutes on a Dynex MLX Luminometer.
To trace the kinetics of proteasome inhibition in the presence of syringolin, the same experiment was performed, but in this case, 100 μl of Proteasome-Glo reagent was added to cells first, followed by the addition of syringolin A at various concentrations, and the proteasome activity was measured over time.
The cell culture-based proteasome inhibition assay was performed as previously described (Groll et al. 2008. Nature 452:755-758, which is incorporated herein by reference in its entirety). Briefly, wells of white-walled 96-well microtiter cell culture plates were seeded at a density of 1×10^4 cells/well (SK-N-SH) or 5×10^3 cells/well (SKOV3) in 90 μl. After 24 hours, 10 μl GlbA or SylA were added at increasing concentrations (0-100 μM) and incubated for 2 hours. […] Cell Death Differ 9:1017-1025; Meng, et al. 1999. PNAS 96:10403-10408, each of which is incorporated herein by reference in its entirety) were used as positive and negative controls, respectively. Microtiter plates were then equilibrated to room temperature for 15 min before adding 100 μl of proteasome Glo™ reagent (containing bioluminescent substrate Suc-LLVY-aminoluciferin) per well. Luminescence was measured on a Dynex MLX luminometer, according to the manufacturer's instructions (Promega).

[5] = biological target: T2, human erythrocyte 20S proteasomes, chymotrypsin-like activity (Homo sapiens, UniProt P28074); type: biochemical
T2 construct: which contains human erythrocyte 20S proteasomes; purchased BIOMOL International AK-740; host or cells: human erythrocytes
Method: A 100 μl reaction volume contained 2 μg/ml 20S proteasome, 100 μM substrate, and the desired concentrations of syringolin A in dilution buffer (50 mM Tris-HCl, pH 7.5, 25 mM KCl, 10 mM NaCl, 1 mM MgCl2). Epoximicin and MG132 (BIOMOL® International) were used as test inhibitors. The release of free AMC (7-amino-4-methylcoumarin) at 37° C. was monitored with an MWGt Sirius HT fluorescence microplate reader (BIO-TEK® Instruments) equipped with a 360 nm excitation and a 460 nm emission filter. Proteolytic activities were measured as the increase in relative fluorescence units (RFU) over time (FIG. 7A-C). […] The initial velocities (vi) were determined from the time derivative of these curves and plotted versus the corresponding inhibitor concentration ([I]). […] Using SigmaPlot, the data were fitted to the hyperbolic equation vi=c+[v0/(Ki′+[I])], where v0 is the velocity of the control. […] The rate of covalent inhibition (kassociation), which equals kobs/[I] was calculated over the range of inhibitor concentrations given in parentheses in FIG. 7D. Values in FIG. 7D represent means±standard deviation.
The fluorogenic substrates Suc-LLVY-AMC, Boc-LRR-AMC, and Z-LLE-AMC (BIOMOL® International) were used to monitor chymotrypsin-like, trypsin-like, and caspase-like activities, respectively. […] The release of free AMC (7-amino-4-methylcoumarin) at 37° C. was monitored with an MWGt Sirius HT fluorescence microplate reader (BIO-TEK® Instruments) equipped with a 360 nm excitation and a 460 nm emission filter.

[6] = biological target: T3, bovine pancreas trypsin (Bos taurus, UniProt P00760); assay: SensoLyte Green Protease Fluorometric Assay, trypsin inhibition; type: biochemical; conditions: syringolin A up to 500 μM
T3 construct: bovine pancreas trypsin (Pierce); purchased Pierce; host or cells: bovine pancreas
Method: (§1) To test the specificity of syringolin A inhibition of proteasome activities, bovine pancreas trypsin (Pierce) and Papaya latex papain (Sigma-Aldrich) inhibition assays with syringolin A were performed with the SensoLyte™ Green Protease Fluorometric Assay Kit (AnaSpec., San Jose, Calif., USA) according to the instructions of the manufacturer. Reaction volumes of 100 μl contained an enzyme concentration of 200 ng/ml and various amounts of test inhibitors. Protease activity was monitored at 33° C. in a FluoroCount Microplate Fluorometer (FluoroCount, Packard, Canberra, Australia) using 485 nm excitation and a 550 nm emission filters.

[7] = biological target: T4, Papaya latex papain (Carica papaya, UniProt P00784); assay: SensoLyte Green Protease Fluorometric Assay, papain inhibition; type: biochemical; conditions: syringolin A up to 500 μM
T4 construct: Papaya latex papain (Sigma-Aldrich); purchased Sigma-Aldrich; host or cells: papaya latex
Method: as §1

T4 sequence (P00784 134-345): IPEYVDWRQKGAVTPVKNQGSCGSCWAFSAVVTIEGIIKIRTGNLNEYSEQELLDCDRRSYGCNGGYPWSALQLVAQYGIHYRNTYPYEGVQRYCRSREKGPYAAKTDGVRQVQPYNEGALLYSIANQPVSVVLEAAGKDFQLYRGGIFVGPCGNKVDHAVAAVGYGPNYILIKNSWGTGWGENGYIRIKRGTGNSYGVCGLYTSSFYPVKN
T3 sequence (P00760 24-246): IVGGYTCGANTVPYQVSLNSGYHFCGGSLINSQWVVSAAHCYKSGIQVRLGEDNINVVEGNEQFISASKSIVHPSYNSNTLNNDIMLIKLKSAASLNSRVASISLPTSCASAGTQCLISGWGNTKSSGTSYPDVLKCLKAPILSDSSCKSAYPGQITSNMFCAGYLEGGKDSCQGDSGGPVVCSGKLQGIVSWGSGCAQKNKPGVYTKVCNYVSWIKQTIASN

In the case of `Cn1cnc(N)c2ncnc1-2` [3-MA, 3-methyladenine, reference compound], the “cell proliferation and killing, 3-MA control cells” value [1] is reported as “suppresses SK-N-SH cell proliferation without killing cells”, the “LC3-II amount / conversion of LC3” value [2] is reported as “did not alter the conversion of LC3” and the PARP cleavage [3] is reported as “had no effect on PARP cleavage”.
In the case of `C/C=C/C/C=C/CCC(=O)[C@H]1O[C@H]1C(N)=O` [cerulenin, reference compound], the “proteasome activity in cells” value [4] is reported as “does not significantly inhibit proteasome activity”.
With glidobactin A the proteasome chymotrypsin-like activity ([5]; 500-fold dilution of 10× concentrated HPLC peak) was “reduced proteasome activity to background levels”.
For `CC(C)C[C@@H](C=O)NC(=O)[C@H](CC(C)C)NC(=O)[C@H](CC(C)C)NC(=O)OCc1ccccc1` [MG-132, reference compound] (Cbz-Leu-Leu-Leu-aldehyde), the trypsin activity [6] was “trypsin inhibitor”, the papain activity [7] was “also inhibits cysteine proteases” and the “mode of proteasome inhibition (reaction velocity over time)” value [5] was “reversible”.
